Measured values taken from ChEMBL document CHEMBL3217652, “Synthesis and SAR of 2,4-diaminopyrimidines as potent c-jun N-terminal kinase inhibitors” (Medchemcomm, 2012).
Active and inactive are the calls of the source. The calls are words filed in the database; no cut-off is given here.

Key:
[1] = target: Mitogen-activated protein kinase 10 (Homo sapiens, UniProt P53779); assay: Inhibition of JNK3 (unknown origin) using biotinylated ATF2 by HTRF method
[2] = target: Mitogen-activated protein kinase 9 (Homo sapiens, UniProt P45984); assay: Inhibition of JNK2 (unknown origin) using biotinylated ATF2 by HTRF method
Rattus norvegicus [3] = assay: (§1) AUC in Sprague-Dawley rat at 2 mg/kg, po by LC-MS/MS analysis; format: ADME, organism-based, Plasma; parameters: dose 2 mg/kg, route oral; conditions: in vivo
Rattus norvegicus [4] = assay: (§2) Oral bioavailability in Sprague-Dawley rat at 2 mg/kg by LC-MS/MS analysis; format: ADME, organism-based; conditions: in vivo
[5] = target: T1, c-Jun N-terminal kinase, JNK (Homo sapiens, UniProt P45983+P53779+P45984); conditions: U-87MG ATCC
Description: Inhibition of JNK in human U87MG cells overexpressing EGFR V3 mutant assessed as inhibition of c-jun phosphorylation at 0.1 to 3 uM after 6 hrs by Western blotting analysis

[6] = Half life in Sprague-Dawley rat at 1 mg/kg, iv and 2 mg/kg, po by LC-MS/MS analysis; format: ADME, organism-based; conditions: in vivo
[7] = target: T1, c-Jun N-terminal kinase, JNK; assay: Inhibition of JNK in human U87MG cells overexpressing EGFR V3 mutant assessed as inhibition of c-jun phosphorylation after 6 hrs by ELISA; format: cell-based; conditions: u-87mg atcc
[8] = Drug uptake in C57Bl6 mouse brain at 10 mg/kg after 2 hrs by LC-MS/MS analysis; format: ADME, organism-based; parameters: dose 10 mg/kg; conditions: read-out: Drug uptake
[9] = Plasma concentration in C57Bl6 mouse at 10 mg/kg after 2 hrs by LC-MS/MS analysis; format: ADME, organism-based; parameters: dose 10 mg/kg
Brain = assay: Drug penetration in C57Bl6 mouse brain at 10 mg/kg by LC-MS/MS analysis relative to control; format: ADME, organism-based; parameters: dose 10 mg/kg; conditions: in vivo
[10] = Inhibition of JNK in rat INS cells assessed as inhibition of c-jun phosphorylation; format: cell-based
[11] = as §1; format: ADME, organism-based, Plasma; parameters: dose 2 mg/kg, route oral; conditions: Sprague-Dawley, plasma
[12] = as §2; format: ADME, organism-based; conditions: Sprague-Dawley, in vivo
[13] = Clearance in Sprague-Dawley rat at 1 mg/kg, iv and 2 mg/kg, po by LC-MS/MS analysis; format: ADME, organism-based; conditions: in vivo

Sequence of Mitogen-activated protein kinase 9 (P45984 whole entry): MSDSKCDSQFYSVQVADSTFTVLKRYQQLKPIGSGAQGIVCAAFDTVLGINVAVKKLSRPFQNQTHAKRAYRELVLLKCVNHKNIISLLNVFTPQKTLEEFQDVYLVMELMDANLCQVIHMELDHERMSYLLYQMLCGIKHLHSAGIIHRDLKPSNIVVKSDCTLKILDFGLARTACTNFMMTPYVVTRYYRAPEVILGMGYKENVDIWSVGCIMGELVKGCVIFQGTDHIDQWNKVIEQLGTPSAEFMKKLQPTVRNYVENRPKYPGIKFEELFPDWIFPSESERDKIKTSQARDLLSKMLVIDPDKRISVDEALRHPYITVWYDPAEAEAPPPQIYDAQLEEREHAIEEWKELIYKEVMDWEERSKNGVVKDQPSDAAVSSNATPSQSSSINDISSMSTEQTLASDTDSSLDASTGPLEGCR
Sequence of Mitogen-activated protein kinase 10 (P53779 whole entry): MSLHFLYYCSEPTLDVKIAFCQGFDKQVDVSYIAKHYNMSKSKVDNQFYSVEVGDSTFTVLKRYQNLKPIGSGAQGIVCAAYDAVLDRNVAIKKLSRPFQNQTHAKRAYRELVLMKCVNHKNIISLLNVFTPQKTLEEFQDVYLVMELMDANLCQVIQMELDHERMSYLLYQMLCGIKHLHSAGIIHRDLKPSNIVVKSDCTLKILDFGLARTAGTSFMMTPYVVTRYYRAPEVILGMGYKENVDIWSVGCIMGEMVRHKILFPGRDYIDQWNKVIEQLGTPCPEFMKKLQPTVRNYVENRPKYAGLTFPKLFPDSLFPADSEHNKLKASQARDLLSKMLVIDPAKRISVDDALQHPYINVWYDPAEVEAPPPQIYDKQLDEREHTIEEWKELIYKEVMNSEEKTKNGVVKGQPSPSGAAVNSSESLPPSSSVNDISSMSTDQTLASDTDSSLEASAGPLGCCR

| SMILES | IC50 [1] [nM] | IC50 [2] [nM] | also measured |
| --- | --- | --- | --- |
| NC(=O)c1ccccc1Nc1ccnc(Nc2ccc(N3CCOCC3)cc2)c1 | 160 | 329 | – |
| COc1cc(Nc2ncc(Cl)c(Nc3ccccc3C(N)=O)n2)ccc1N1CCOCC1 | 0.28 | 0.68 | AUC (Rattus norvegicus [3]): 1.3 µM·h; F (Rattus norvegicus [4]): 17%; inhibition [5]: Active; half-life [6]: 1 h; EC50 [7]: 23 nM; concentration at 2 h [8]: 800 nM; concentration at 2 h [9]: 2600 nM; Drug uptake (Brain): 31% |
| COc1cc(N2CCOCC2)ccc1Nc1cc(Nc2ccccc2C(N)=O)ccn1 | 374 | – | – |
| COc1cc(N2CCOCC2)ccc1Nc1ncc(Cl)c(Nc2ccccc2C(N)=O)n1 | 0.78 | 3 | AUC (Rattus norvegicus [3]): 0.4 µM·h; F (Rattus norvegicus [4]): 30%; half-life [6]: 1 h; IC50 [10]: 3 nM; concentration at 2 h [8]: 930 nM; concentration at 2 h [9]: 5500 nM; Drug uptake (Brain): 17% |
| O=C(NCc1ccccc1)c1ccccc1Nc1ccnc(Nc2ccc(N3CCOCC3)cc2)c1 | > 20000 | – | – |
| NC(=O)c1ccccc1Nc1nc(Nc2ccc(F)cc2)ncc1Cl | 1.2 | 2.5 | – |
| CNC(=O)c1ccccc1Nc1cc(Nc2ccc(N3CCOCC3)cc2OC)ncc1Cl | 83 | 50 | – |
| CNC(=O)c1ccccc1Nc1cc(Nc2ccc(N3CCOCC3)cc2OC)ncc1Br | 68 | 82 | – |
| CNC(=O)c1ccccc1Nc1cc(Nc2ccc(N3CCOCC3)cc2)ncc1C(F)(F)F | 61 | 90 | – |
| CNC(=O)c1ccccc1Nc1ccnc(Nc2ccc(N3CCOCC3)cc2)c1 | 3100 | – | – |
| CNC(=O)c1ccccc1Nc1nc(Nc2ccc(N3CCOCC3)cc2OC)ncc1Cl | – | – | inhibition [5]: Active; IC50 [10]: 485 nM |
| NC(=O)c1ccccc1Nc1nc(Nc2ccc(N3CCOCC3)c(F)c2)ncc1Cl | 0.25 | 0.51 | – |
| COc1ccc(Nc2ncc(Cl)c(Nc3ccccc3C(N)=O)n2)cc1 | 0.42 | 1 | – |
| CNC(=O)c1ccccc1Nc1cc(Nc2ccc(N3CCOCC3)cc2OC)ncc1F | 320 | 590 | – |
| N#Cc1ccc(Nc2ncc(Cl)c(Nc3ccccc3C(N)=O)n2)cc1 | 0.77 | 0.71 | – |
| O=C(Nc1ccccc1)c1ccccc1Nc1ccnc(Nc2ccc(N3CCOCC3)cc2)c1 | 12000 | – | – |
| O=C1NCc2cccc(Nc3ccnc(Nc4ccc(N5CCOCC5)cc4)c3)c21 | 1800 | – | – |
| NC(=O)c1ccccc1Nc1nc(Nc2ccc(N3CCOCC3)cc2)ncc1Cl | 0.28 | 1 | AUC [11]: 0.1 µM·h; bioavailability [12]: 8%; clearance [13]: 59 mL/min/kg; half-life [6]: 1 h; concentration at 2 h [8]: 830 nM; concentration at 2 h [9]: 840 nM; Drug uptake (Brain): 100% |
| NC(=O)c1ccccc1Nc1nc(Nc2ccc(Cl)cc2)ncc1Cl | 2.5 | 34 | – |
| NC(=O)c1ccccc1Nc1nc(Nc2ccc(N3CCCC3=O)cc2)ncc1Cl | 0.16 | 0.24 | AUC [11]: 0.2 µM·h; bioavailability [12]: 3%; clearance [13]: 10 mL/min/kg; half-life [6]: 0.6 h; concentration at 2 h [8]: 15 nM; concentration at 2 h [9]: 680 nM; Drug uptake (Brain): 2% |
| CNC(=O)c1ccccc1Nc1cc(Nc2ccc(N3CCOCC3)cc2OC)ncc1C(F)(F)F [VS-4718] | 160 | 120 | IC50 [10]: > 3000 nM |
| CN(C)CCNC(=O)c1ccccc1Nc1ccnc(Nc2ccc(N3CCOCC3)cc2)c1 | > 20000 | – | – |
| Cc1cc(Nc2ncc(Cl)c(Nc3ccccc3C(N)=O)n2)ccc1N1CCOCC1 | 0.31 | 0.69 | – |
| NC(=O)c1ccccc1Nc1nc(Nc2ccc(N3CCOCC3)cc2F)ncc1Cl | 0.3 | 0.6 | – |
| COc1cc(Nc2cc(Nc3ccccc3C(N)=O)ccn2)ccc1N1CCOCC1 | 132 | – | – |
| CNC(=O)c1ccccc1Nc1cc(Nc2ccc(N3CCOCC3)cc2OC)ncc1C#N | 510 | > 3000 | – |
| COc1cc(N2CCOCC2)ccc1Nc1cc(Nc2ccccc2C(=O)N(C)C)c(C(F)(F)F)cn1 | 1000 | – | – |
